According to PMC12771125, “Compounds Reducing Human Sperm Motility as Potential Nonhormonal Contraceptives Identified Using a High-Throughput Phenotypic Screening Platform” (ACS Omega, 2025):
Converted amounts (≈) assume the structure as drawn. Like-named read-outs stand apart in the source and are kept apart here.

Columns and labels:
Aqueous solubility = type: physicochemical
HepG2 cells = assay: HepG2 cytotoxicity assay (resazurin, 72 h); type: cell-based, human; details: for EC50: Homo sapiens, HepG2, 72 h, read-out: HepG2 pEC50 (converted)
From the text: Our overarching aims for investigating our chemical series and deciding which ones had the potential for further progression were to achieve adequate potency in our motility assay, suitable solubility, and minimal cytotoxicity in HepG2 cells. This third point was often the most challenging, as multiple series had cytotoxicity in HepG2 cells. This observation is perhaps not surprising; many potential targets in sperm cells can also be found in somatic cells. Our cytotoxicity assay is run with an incubation time of 72 h, to give time for gross cytotoxic effects to become apparent.
Compound dilution curves were plated directly using a Labcyte Echo 550 acoustic dispenser (125 nL) in 384-well white clear-bottom plates (Greiner). HepG2 cells (ATCCHepG2 HB-8065) were cultured in minimum essential medium (supplemented with glutamax) with 10% FCS and plated (25 μL) using a WellMate dispenser ([…]) and incubated for 72 h. Doxorubicin was used as a positive control drug. Resazurin was then added to each well at a final concentration of 45 μM, and fluorescence was measured using a PHERAstar LS (BMG Labtech) after 4 h of further incubation (excitation of 528 nm and emission of 590 nm). Raw data were normalized to controls and expressed as % growth.
Figure S2: Concentration-response curves from high throughput HepG2 viability assay. Each compound was tested in duplicate and the curves of each replicate are shown. The reported values in the tables are an average of the 2 pEC50 values obtained. […]
determine 0% effect, positive control used to determine 100% effect).
Hit compounds 1a, 6b and 7a were repurchased from commercial suppliers including enamine and […]

human sperm = assay: Reduction of sperm motility (RSM) high-throughput phenotypic assay; type: cell-based; details: for EC50: Homo sapiens, reduction of progressive sperm motility relative to control
Protocol: Using our previously established phenotypic human sperm motility screening platform, we screened a large subset (62,621 compounds) of one of our in-house diversity libraries (National Phenotypic Screening Centre (NPSC) Diversity Set) (Figure A,B). Briefly, human sperm are collected, isolated from semen, distributed into 384-well plates with test compounds, time-lapse images of sperm movement are recorded using a high-content imager, and progressive motility parameters are calculated using custom data analysis software. Sperm motility is complicated, and the mechanisms underpinning its regulation are not fully understood. Progressive motility, which is a measurement of the movement of forward progression of sperm, is most closely linked to sperm quality, and the percentage of progressively motile sperm compared to control is therefore the parameter utilized during the work described in this paper. […]
We used an HTS screening platform to assess the motility of live human spermatozoa. The platform and its development are described in detail in Gruber et al. , and summarized below in brief. The platform was used to screen compound libraries specifically focusing on reduction in motility. Interesting compounds were examined in further detail as possible starting points for a medicinal chemistry program. The experimental design is illustrated in Figure .
Donors were local to the Dundee area, over the age of 18, and had no known fertility problems and normal sperm concentration, motility and semen characteristics according to WHO 2021 criteria. Special category personal data for donors, such as ethnic origin, was not recorded in accordance with ethical approval and UK GDPR. Samples were obtained by masturbation, after sexual abstinence of 2–5 days, and delivered to the research laboratory within one h of production. Samples were allowed to liquefy at 37 °C for 15–30 min prior to preparation by discontinuous density gradient centrifugation (DGC). […] A minimum of 3 prepared donor samples were routinely pooled to reduce donor-to-donor variability for primary screening assays. Pooled samples were incubated for 3 h at 37 °C under noncapacitating conditions.
In brief, screening batches of cells were transferred to a robotic platform (HighRes Biosolutions Inc.) and maintained during the screen at 37 °C at 5% CO2. Assay-ready 384-well plates containing compounds were prepared prior to the screen and filled with approximately 10,000 spermatozoa (20 μL) per well using a liquid handling system (MultiDrop Combi; ThermoFisher). These plates were incubated for 10 min prior to imaging. The HTS system utilized a Yokogawa CV7000 Cell Voyager high-throughput microscope to record time-lapse images from 2 positions in each well. An adaptation of a tracking algorithm, Trackpy v0.4.1 was utilized to track individual spermatozoa within each well and obtain kinematic parameters. Within the compound-test plates, DMSO was used as the vehicle control.
All steps were performed as previously described. , In summary, data from every compound well were normalized to those from in-plate DMSO controls (wells containing the same amount of DMSO as compound wells). Two positions were recorded in every well, and the average of those positions was used for calculating % of control (median value/DMSO median) × 100. Each plate contained 16 DMSO control wells. Median curvilinear velocity (VCL) was used as the primary readout for the NPSC Diversity Set screened at 6 μM, and percentage progressive motility (PM) was used for all other libraries screened. Hits from the primary screening were chosen based on the % change compared to the control. In these experiments, an RSM of ≥20% compared to negative controls (DMSO) was chosen as a cutoff for potential progression.
In a screening program of this scale, a significant number of compounds are likely to have a negative effect on sperm motility, but a number will show general toxicity. […]

[1] = 10 min, 10 min incubation, reported <X (neg. log of top concentration) if largest reduction <70%, read-out: RSM pEC50 10 mins (converted)
[2] = 3 h incubation, reported <X if largest reduction <70%, read-out: RSM pEC50 3 hrs (converted)
[3] = 6 h incubation, reported <X if largest reduction <70%, read-out: RSM pEC50 6 hrs (converted)

| SMILES | solubility (Aqueous solubility) | EC50 (HepG2 cells) | EC50 (human sperm; [1]) | EC50 (human sperm; [2]) | EC50 (human sperm; [3]) | increase in cytotoxicity against HepG2 cells (HepG2 cells; compared with hit 2a) | increase in potency in the sperm motility assay (human sperm; after 6 h incubation, compared with hit 2a) |
| --- | --- | --- | --- | --- | --- | --- | --- |
| N#Cc1ccc(NC(=O)c2cc(Cl)ccc2O)cc1Cl [Compound 1e] | 2.3 µM (≈ 0.706 µg/mL) | 5.01 µM | 2.51 µM |  |  |  |  |
| O=C(Nc1cccc(Cl)c1)c1cc(Cl)ccc1O [Compound 1f] | 4.1 µM (≈ 1.16 µg/mL) | 6.31 µM | 5.01 µM |  |  |  |  |
| N#Cc1ccc(NC(=O)c2cc(Cl)ccc2O)cc1 [Compound 1g] | 11 µM (≈ 3 µg/mL) | 2.51 µM | 5.01 µM |  |  |  |  |
| N#Cc1ccc(NC(=O)c2cc(Cl)ccc2O)cn1 [Compound 1h] | 100 µM (≈ 27.4 µg/mL) | 20 µM | > 20 µM |  |  |  |  |
| COc1ccc(Cl)cc1C(=O)Nc1ccc(C#N)c(Cl)c1 [Compound 1j] | 0.19 µM (≈ 0.061 µg/mL) | > 100 µM | > 20 µM |  |  |  |  |
| O=C(Nc1ccc(OCc2ccccc2)cc1)c1ccccc1Cl [Compound 1k] | 0.64 µM (≈ 0.216 µg/mL) | > 100 µM | > 20 µM |  |  |  |  |
| NCCN(C(=O)c1ccccc1Cl)c1ccc(Cl)cc1 [Compound 1l] | 240 µM (≈ 74.2 µg/mL) | 79.4 µM | > 31.6 µM | > 31.6 µM | > 31.6 µM |  |  |
| NCCN(C(=O)c1ccc(F)cc1F)c1ccc(Cl)cc1 [Compound 1n] | 73 µM (≈ 22.7 µg/mL) | > 100 µM | > 31.6 µM | > 31.6 µM | > 31.6 µM |  |  |
| COc1cc(N2CCOCC2)ccc1Nc1ncc(Cl)c(Nc2ccccc2NS(C)(=O)=O)n1 [Compound 2a, N-(2-((5-Chloro-2-((2-methoxy-4-morpholinophenyl)amino)pyrimidin-4-yl)amino)phenyl)methanesulfonamide, reference compound] | 30 µM (≈ 15.2 µg/mL) | 3.98 µM | 3.98 µM | 2.51 µM | 2 µM |  |  |
| CNC(=O)c1ccccc1Nc1nc(Nc2ccc(N3CCOCC3)cc2OC)ncc1Cl [Compound 2b] | 2.2 µM (≈ 1.03 µg/mL) | 2 µM | 2.51 µM |  |  |  |  |
| CS(=O)(=O)Nc1cc(F)ccc1Nc1nc(Nc2ccc(C(=O)N3CCOCC3)cc2)ncc1Cl [Compound 2c] | 2.3 µM (≈ 1.2 µg/mL) | 7.94 µM | 5.01 µM | 3.16 µM | 3.98 µM |  |  |
| CN(c1ccccc1Nc1nc(Nc2ccc(CN3CCOCC3)cc2)ncc1Cl)S(C)(=O)=O [Compound 2d] | 64 µM (≈ 32.2 µg/mL) | 0.398 µM | > 31.6 µM | 0.126 µM | 0.126 µM | 1 log | 1 log-unit |
| CS(=O)(=O)Nc1cc(F)ccc1Nc1nc(Nc2ccc(CN3CCNCC3)cc2)ncc1Cl [Compound 2e] | 27 µM (≈ 13.7 µg/mL) | 15.8 µM | 3.98 µM | 2 µM | 1.58 µM |  |  |
| CS(=O)(=O)Nc1ccccc1Nc1nc(NC2CCOCC2)ncc1Cl [Compound 2f] | 16 µM (≈ 6.37 µg/mL) | 5.01 µM | > 31.6 µM | > 31.6 µM | > 31.6 µM |  |  |
| O=C(Nc1nc(-c2ccccn2)cs1)Nc1ccc(F)cc1F [Compound 3b, 1-(2,4-Difluorophenyl)-3-(4-(pyridin-2-yl)thiazol-2-yl)urea] | 1.2 µM (≈ 0.399 µg/mL) | 7.94 µM | > 31.6 µM | > 31.6 µM | 7.94 µM |  |  |
| O=C(Nc1nc(-c2ccccn2)cs1)c1ccccc1Cl [Compound 3c] | 100 µM (≈ 31.6 µg/mL) | > 100 µM | > 31.6 µM | > 31.6 µM | > 31.6 µM |  |  |
| O=C(Nc1nc(-c2cccnc2)cs1)Nc1ccc(F)cc1F [Compound 3d] | 1.5 µM (≈ 0.499 µg/mL) | > 100 µM | > 31.6 µM | > 31.6 µM | > 31.6 µM |  |  |
| O=C(Nc1nc(-c2ccccc2)cs1)Nc1ccc(F)cc1F [Compound 3e] | 0.24 µM (≈ 0.0795 µg/mL) | 50.1 µM | > 31.6 µM | > 31.6 µM | > 31.6 µM |  |  |
| O=C(Nc1nc(-c2ccc(F)cc2F)cs1)Nc1ccc(F)cc1F [Compound 3f] | 0.29 µM (≈ 0.107 µg/mL) | > 100 µM | > 31.6 µM | > 31.6 µM | > 31.6 µM |  |  |
| CC(C)c1csc(NC(=O)Nc2ccc(F)cc2F)n1 [Compound 3g] | 0.89 µM (≈ 0.265 µg/mL) | > 100 µM | > 31.6 µM | > 31.6 µM | > 31.6 µM |  |  |
| O=C(Nc1nc(-c2ccccn2)cs1)NC1CCOCC1 [Compound 3i] | 220 µM (≈ 67 µg/mL) | > 100 µM | > 31.6 µM | > 31.6 µM | > 31.6 µM |  |  |
| CC(C)NC(=O)Nc1nc(-c2ccccn2)cs1 [Compound 3j] | 140 µM (≈ 36.7 µg/mL) | > 100 µM | > 31.6 µM | > 31.6 µM | > 31.6 µM |  |  |
| O=C(Nc1nc(-c2ccccn2)cs1)NC1CCNCC1 [Compound 3k] | 130 µM (≈ 39.4 µg/mL) | > 100 µM | > 31.6 µM | > 31.6 µM | > 31.6 µM |  |  |
| CC(C)CNC(=O)Nc1nc(-c2ccccn2)cs1 [Compound 3l] | 9.3 µM (≈ 2.57 µg/mL) | > 100 µM | > 31.6 µM | > 31.6 µM | 7.94 µM |  |  |
